Results: article PMC3510433, “Adamantyl carboxamides and acetamides as potent human 11β-hydroxysteroid dehydrogenase type 1 inhibitors” (Bioorganic & Medicinal Chemistry, 2012)
Marks after values point to notes of the source that are not given here.

Assays:
human 11β-HSD1 = target: T1, human 11β-HSD1 (Homo sapiens, UniProt P28845); test: 11β-HSD1 inhibition, human HEK-293 cell based assay (SPA); conditions: for 11β-HSD1 inhibitory activity (in words): at 1 μM where stated; for inhibition at 1 µM: HEK293, read-out: Percentage of inhibition measured at 1 μM
T1 construct: expressed in transfected cells; host or cells: HEK-293 (human), stably transfected
T1 sequence (P28845 whole entry): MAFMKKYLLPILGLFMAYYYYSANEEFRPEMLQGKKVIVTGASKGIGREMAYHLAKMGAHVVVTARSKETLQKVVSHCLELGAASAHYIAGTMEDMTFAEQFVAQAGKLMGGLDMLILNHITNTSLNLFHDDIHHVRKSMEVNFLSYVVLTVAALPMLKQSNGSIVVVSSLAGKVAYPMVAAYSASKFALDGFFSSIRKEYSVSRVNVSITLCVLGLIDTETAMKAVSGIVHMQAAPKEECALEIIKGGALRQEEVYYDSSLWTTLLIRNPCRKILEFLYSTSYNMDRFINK
Protocol: 11β-HSD1 inhibition was measured in intact human HEK-293 cells to reveal the true inhibitory activity. Differences in observed effects for different compounds may reflect combinatorial factors including the ability to penetrate the cell membrane, the stability within the cell and the binding ability to the enzyme.
The cell-based assays were conducted on the human HEK-293 cell line stably transfected with the HSD11B1 gene.[28] 11β-HSD1 activity was determined by measuring the amount of tritiated product formed using a scintillation proximity assay (SPA).
Cells were incubated in 96-well micro-plates in the presence of tritiated cortisone substrate and the assay plates contained internal high and low controls to allow calculation of percentage inhibition. Each well of a 96-well culture plate was seeded with human 11β-HSD1 overexpressed HEK293 cells in 100 μL medium. When the cells were 80% confluent, the medium was removed from each well then 100 μL of fresh, serum-free, medium containing ^3H-cortisone (22 nM) and test compound in 1% DMSO was added. The control wells were also dispensed. […] The plate was incubated at 37 °C for 2 h, after which 50 μL of medium was removed from each well and transferred to a microplate containing 100 μL of a pre-incubated mixture of anti-cortisol antibody and SPA bead. The mixture was incubated with gentle shaking until equilibrium was reached, before transferring to a scintillation counter to establish the enzyme activity in each sample.
The compounds were initially tested at a concentration of 1 μM. Those compounds showing over 70% inhibition of 11β-HSD1 at 1 μM were subjected to an IC50 measurement. A Merck compound 544 was used as the reference compound in the assay (IC50 = 50 ± 20 nM).[19] The IC50 values are reported as the mean value of 3 measurements with variance less than 20%. IC50 values were calculated from the dose-response curve using Microsoft Excel add-in XLfit with a Four Parameter Logistic nonlinear regression model.

[1] = HEK-293 cells stably transfected with HSD11B1, mean of 3 measurements
[2] = 1 μM, HEK-293 cells transfected with HSD11B1

Structure (SMILES): O=C(NCc1cccs1)C12CC3CC(CC(C3)C1)C2 [Compound 5]
- IC50 (human 11β-HSD1; [1]): 403 nM

Structure (SMILES): Cc1ccsc1CN(C)C(=O)C12CC3CC(CC(C3)C1)C2 [Compound 6, N-Methyl-N-((3-methylthiophen-2-yl)methyl)adamantane-1-carboxamide]
- melting point: 72 to 73.5 °C
- IC50 (human 11β-HSD1; [1]): 275 nM
- 11β-HSD1 inhibitory activity (in words) (human 11β-HSD1): retains nearly the same activity as parent compound 3

Structure (SMILES): CN(Cc1sccc1N)C(=O)C12CC3CC(CC(C3)C1)C2 [Compound 7, N-((3-Aminothiophen-2-yl)methyl)-N-methyladamantane-1-carboxamide]
- melting point: 117 to 119 °C
- inhibition at 1 µM (human 11β-HSD1; [2]): 12%
- 11β-HSD1 inhibitory activity (in words) (human 11β-HSD1): sharp decrease of activity

Structure (SMILES): Cc1csc(CN(C)C(=O)C23CC4CC(CC(C4)C2)C3)c1 [Compound 8, N-Methyl-N-((4-methylthiophen-2-yl)-methyl)adamantane-1-carboxamide]
- melting point: 87 to 88 °C
- inhibition at 1 µM (human 11β-HSD1; [2]): 55%
- 11β-HSD1 inhibitory activity (in words) (human 11β-HSD1): weak inhibition

Structure (SMILES): Cc1csc(CNC(=O)C23CC4CC(CC(C4)C2)C3)c1 [Compound 9, N-((4-Methylthiophen-2-yl)methyl)-adamantane-1-carboxamide]
- melting point: 127 to 128.5 °C
- inhibition at 1 µM (human 11β-HSD1; [2]): 8%

Structure (SMILES): Cc1ccc(CN(C)C(=O)C23CC4CC(CC(C4)C2)C3)s1 [Compound 10, N-Methyl-N-((5-methylthiophen-2-yl)-methyl)adamantane-1-carboxamide]
- melting point: 83 to 85.5 °C
- inhibition at 1 µM (human 11β-HSD1; [2]): 32%
- 11β-HSD1 inhibitory activity (in words) (human 11β-HSD1): weak inhibition

Structure (SMILES): CN(Cc1ccc(Cl)s1)C(=O)C12CC3CC(CC(C3)C1)C2 [Compound 11, N-((5-Chlorothiophen-2-yl)methyl)-N-methyladamantane-1-carboxamide]
- melting point: 92 to 94 °C
- inhibition at 1 µM (human 11β-HSD1; [2]): 29%
- 11β-HSD1 inhibitory activity (in words) (human 11β-HSD1): weak inhibition

Structure (SMILES): CN(Cc1ccsc1)C(=O)C12CC3CC(CC(C3)C1)C2 [Compound 12]
- IC50 (human 11β-HSD1; [1]): 125 nM

Structure (SMILES): CN(Cc1ccco1)C(=O)C12CC3CC(CC(C3)C1)C2 [Compound 13]
- IC50 (human 11β-HSD1; [1]): 249 nM

Structure (SMILES): O=C(NCc1ccco1)C12CC3CC(CC(C3)C1)C2 [Compound 14, N-(Furan-2-ylmethyl)adamantane-1-carboxamide]
- melting point: 69 to 72 °C
- inhibition at 1 µM (human 11β-HSD1; [2]): 68%

Structure (SMILES): Cn1cccc1CNC(=O)C12CC3CC(CC(C3)C1)C2 [Compound 16, N-((1-Methyl-1H-pyrrol-2-yl)meth-yl)-adamantane-1-carboxamide]
- melting point: 117 to 119 °C
- IC50 (human 11β-HSD1; [1]): 1700 nM

Structure (SMILES): CN(Cc1nccn1C)C(=O)C12CC3CC(CC(C3)C1)C2 [Compound 17, N-Methyl-N-((1-methyl-1H-imidazol-2-yl)methyl)adamantane-1-carboxamide]
- melting point: 175 to 176 °C
- inhibition at 1 µM (human 11β-HSD1; [2]): 24%

Structure (SMILES): CN(Cc1ccnn1C)C(=O)C12CC3CC(CC(C3)C1)C2 [Compound 18, N-Methyl-N-((1-methyl-1H-pyrazol-5-yl)-methyl)adamantane-1-carboxamide]
- melting point: 102 to 103.5 °C
- inhibition at 1 µM (human 11β-HSD1; [2]): 34%

Structure (SMILES): Cc1csc(CN(C)C(=O)C23CC4CC(CC(C4)C2)C3)n1 [Compound 19, N-Methyl-N-((4-methylthiazol-2-yl)-methyl)adamantane-1-carboxamide]
- inhibition at 1 µM (human 11β-HSD1; [2]): 31%

Structure (SMILES): CN(Cc1cccc(N)c1)C(=O)C12CC3CC(CC(C3)C1)C2 [Compound 20, N-(3-Aminobenzyl)-N-methyladam-antane-1-carboxamide]
- melting point: 105 to 106.5 °C
- IC50 (human 11β-HSD1; [1]): 118 nM

Structure (SMILES): CC(=O)Nc1cccc(CN(C)C(=O)C23CC4CC(CC(C4)C2)C3)c1 [Compound 21, N-(3-Acetamidobenzyl)-N-methyl-adamantane-1-carboxamide]
- melting point: 109 to 111 °C
- inhibition at 1 µM (human 11β-HSD1; [2]): 22%

Structure (SMILES): CN(Cc1cccnc1)C(=O)C12CC3CC(CC(C3)C1)C2 [Compound 24, N-Methyl-N-(pyridin-3-ylmethyl)-adamantane-1-carboxamide]
- melting point: 57 to 59.5 °C
- inhibition at 1 µM (human 11β-HSD1; [2]): 57%

Structure (SMILES): O=C(NCc1cccnc1)C12CC3CC(CC(C3)C1)C2 [Compound 25, N-(Pyridin-3-ylmethyl)adamantane-1-carboxamide]
- IC50 (human 11β-HSD1; [1]): 676 nM

Structure (SMILES): O=C(NCc1ccccn1)C12CC3CC(CC(C3)C1)C2 [Compound 26, N-(Pyridin-2-ylmethyl)adamantane-1-carboxamide]
- melting point: 91 to 93.5 °C
- inhibition at 1 µM (human 11β-HSD1; [2]): 45%

Structure (SMILES): Cc1cccc(CN(C)C(=O)C23CC4CC(CC(C4)C2)C3)n1 [Compound 27, N-Methyl-N-((6-methylpyridin-2-yl)-methyl)adamantane-1-carboxamide]
- melting point: 76 to 77.5 °C
- inhibition at 1 µM (human 11β-HSD1; [2]): 48%

Structure (SMILES): CN(CCc1cccs1)C(=O)C12CC3CC(CC(C3)C1)C2 [Compound 28]
- IC50 (human 11β-HSD1; [1]): 448 nM

Structure (SMILES): O=C(NCCc1cccs1)C12CC3CC(CC(C3)C1)C2 [Compound 29]
- IC50 (human 11β-HSD1; [1]): 679 nM

Structure (SMILES): CN(CCc1ccccn1)C(=O)C12CC3CC(CC(C3)C1)C2 [Compound 30, N-Methyl-N-(2-(pyridin-2-yl)ethyl)-adamantane-1-carboxamide]
- melting point: 64 to 65 °C
- IC50 (human 11β-HSD1; [1]): 165 nM

Structure (SMILES): O=C(NCCc1ccccn1)C12CC3CC(CC(C3)C1)C2 [Compound 31, N-(2-(Pyridin-2-yl)ethyl)adamant-ane-1-carboxamide]
- melting point: 76 to 79 °C
- IC50 (human 11β-HSD1; [1]): 379 nM

Structure (SMILES): O=C(NCCc1cccnc1)C12CC3CC(CC(C3)C1)C2 [Compound 32, N-(2-(Pyridin-3-yl)ethyl)adamant-ane-1-carboxamide]
- melting point: 83 to 85 °C
- inhibition at 1 µM (human 11β-HSD1; [2]): 1%

Structure (SMILES): O=C(CC12CC3CC(CC(C3)C1)C2)NCc1cccs1 [Compound 33, 2-(Adamantan-1-yl)-N-(thiophen-2-ylmeth-yl)acetamide]
- melting point: 117 to 119 °C
- inhibition at 1 µM (human 11β-HSD1; [2]): 66%

Structure (SMILES): CN(Cc1ccsc1)C(=O)CC12CC3CC(CC(C3)C1)C2 [Compound 34, 2-(Adamantan-1-yl)-N-methyl-N-(thio-phen-3-ylmethyl)acetamide]
- melting point: 117 to 119 °C
- IC50 (human 11β-HSD1; [1]): 349 nM
- fold reduction in potency compared to 12 (human 11β-HSD1; acetamide vs carboxamide 12): greater than 2 fold

Structure (SMILES): CN(Cc1cccn1C)C(=O)CC12CC3CC(CC(C3)C1)C2 [Compound 35, 2-(Adamantan-1-yl)-N-methyl-N-[(1-methyl-1H-pyrrol-2-yl)methyl]acetamide]
- melting point: 75 to 76.5 °C
- IC50 (human 11β-HSD1; [1]): 655 nM
- fold loss of inhibitory activity compared with 15 (human 11β-HSD1; acetamide vs carboxamide 15): ~6 fold

Structure (SMILES): Cn1cccc1CNC(=O)CC12CC3CC(CC(C3)C1)C2 [Compound 36, 2-(Adamantan-1-yl)-N-[(1-methyl-1H-pyrrol-2-yl)methyl]acetamide]
- melting point: 92 to 95 °C
- IC50 (human 11β-HSD1; [1]): 2880 nM

Structure (SMILES): CN(Cc1cccnc1)C(=O)CC12CC3CC(CC(C3)C1)C2 [Compound 37, 2-(Adamantan-1-yl)-N-methyl-N-(pyridin-3-ylmethyl)acetamide]
- melting point: 67 to 68.5 °C
- inhibition at 1 µM (human 11β-HSD1; [2]): 67%

Structure (SMILES): O=C(CC12CC3CC(CC(C3)C1)C2)NCc1ccccn1 [Compound 38, 2-(Adamantan-1-yl)-N-(pyridin-2-yl-methyl)acetamide]
- Percentage of inhibition measured at 1 μM (human 11β-HSD1; [2]): 26% ^a

Structure (SMILES): CN(Cc1cccs1)C(=O)C12CC3CC(CC1C3)C2 [Compound 39, N-Methyl-N-(thiophen-2-ylmethyl)-tRicyclo[3.3.1.0^(3,7)]nonane-3-carboxamide]
- melting point: 87 to 88.5 °C
- IC50 (human 11β-HSD1; [1]): 1080 nM

Structure (SMILES): CN(Cc1cccs1)C(=O)C1(C)CCCCC1 [Compound 40, N,1-Dimethyl-N-(thiophen-2-ylmethyl)cyclohexanecarboxamide]
- IC50 (human 11β-HSD1; [1]): 3600 nM

Structure (SMILES): CN(Cc1cccs1)C(=O)C1(c2ccc(Cl)cc2)CC1 [Compound 42, 1-(4-Chlorophenyl)-N-methyl-N-(thio-phen-2-ylmethyl) cyclopropanecarbox-amide]
- IC50 (human 11β-HSD1; HEK-293 cells): ~1600 nM
- IC50 (human 11β-HSD1; [1]): 1550 nM
- fold loss of activity in comparison with 41 (human 11β-HSD1; vs compound 41): ~5.5 fold

Structure (SMILES): CN(Cc1cccs1)C(=O)C1(c2ccc(Cl)cc2)CCC1 [Compound 43, 1-(4-Chlorophenyl)-N-methyl-N-(thio-phen-2-ylmethyl)cyclobutanecarbox-amide]
- IC50 (human 11β-HSD1; [1]): 385 nM

Structure (SMILES): CN(Cc1cccs1)C(=O)C1(c2ccc(Cl)cc2)CCCC1 [Compound 44, 1-(4-Chlorophenyl)-N-methyl-N-(thio-phen-2-ylmethyl)cyclopentanecarbox-amide]
- melting point: 58 to 60 °C
- IC50 (human 11β-HSD1; [1]): 2200 nM

Structure (SMILES): C1CCc2nnc(C34CC5CC(CC(C5)C3)C4)n2CC1 [Merck compound 544, reference compound]
- IC50 (human 11β-HSD1; [1]): 50 ± 20 nM
